Where two headings read alike, the source gives them in different places. Values belong to the compound of their own block, whether it stands above or below them.
Columns and labels:
[1] = Plasma free fraction (fu) and unbound Cmax (Cmax,u); assay type: in vitro ADME, human; conditions: unbound plasma Cmax
hLiMTs [2] = system: hLiMTs
HepaRG spheroids [3] = system: HepaRG spheroids
PHH = conditions: cited from earlier work
hLiMTs [4] = conditions: cited from earlier work
[5] = system: HepG2 C3A spheroid, BSEP, Glu/Gal in HepG2 cells, bioactivation; conditions: cited from earlier work
[6] = read-out: Human plasma Cmax; total plasma Cmax.tot, median of 9 literature references; cited from earlier work
[7] = plasma free fraction; cited from earlier work
[8] = cited from earlier work
hLiMTs [9] = assay: Combined HCI (HCS) and cellular ATP 3D assay in hLiMTs; conditions: for hLiMTs <25x Avg Cmax ATP / hLiMTs <100x Avg Cmaxu ATP: ATP endpoint; for hLiMTs <25x Avg Cmax ATP / hLiMTs <25x Avg Cmax HCS / hLiMTs <25x Avg Cmax All: cut-off <25x Avg Cmax; for hLiMTs <100x Avg Cmaxu ATP / hLiMTs <100x Avg Cmaxu HCS / hLiMTs <100x Avg Cmaxu All: cut-off <100x Avg Cmaxu; for hLiMTs <25x Avg Cmax HCS / hLiMTs <100x Avg Cmaxu HCS: HCS endpoints; for hLiMTs <25x Avg Cmax All: all endpoints (ATP and HCS); for hLiMTs Cmax max All / hLiMTs Cmax min All / hLiMTs <10 uM All / hLiMTs <100x Avg Cmaxu All: all endpoints; for hLiMTs Cmax max All: Cmax max used; for hLiMTs Cmax min All: Cmax min used; for hLiMTs <10 uM All: cut-off <10 uM
HepaRG spheroids [10] = assay: Combined HCI (HCS) and cellular ATP 3D assay in HepaRG spheroids; conditions: HepaRG; for HepaRG <25x Avg Cmax ATP / HepaRG <100x Avg Cmaxu ATP: ATP endpoint; for HepaRG <25x Avg Cmax ATP / HepaRG <25x Avg Cmax HCS / HepaRG <25x Avg Cmax All: cut-off <25x Avg Cmax; for HepaRG <100x Avg Cmaxu ATP / HepaRG <100x Avg Cmaxu HCS / HepaRG <100x Avg Cmaxu All: cut-off <100x Avg Cmaxu; for HepaRG <25x Avg Cmax HCS / HepaRG <100x Avg Cmaxu HCS: HCS endpoints; for HepaRG <25x Avg Cmax All: all endpoints (ATP and HCS); for HepaRG Cmax max All / HepaRG Cmax min All / HepaRG <10 uM All / HepaRG <100x Avg Cmaxu All: all endpoints; for HepaRG Cmax max All: Cmax max used; for HepaRG Cmax min All: Cmax min used; for HepaRG <10 uM All: cut-off <10 uM; for minimal effective concentration: Homo sapiens
[11] = cited from earlier work; remark: listed apart in the source
human hepatocytes = conditions: cited from earlier work
[12] = system: THLE or HepG2 cells, isolated mitochondria, BSEP; conditions: cited from earlier work
PHH spheroids = conditions: cited from earlier work
[13] = In vitro Assay, ref Proctor 2017

Structure (SMILES): CN(C)C(=O)Oc1cccc([N+](C)(C)C)c1 [neostigmine]
- Human plasma Cmax,u [1]: 36 nM
- DILI prediction hLiMTs (HCS-MEC) (hLiMTs [2]): -VE
- DILI prediction HepaRG spheroids (HCS-MEC) (HepaRG spheroids [3]): -VE
- PHH/100uM, Proctor (2017) (PHH; 2D PHH, ATP, IC50 threshold 100 µM, ref Proctor et al. 2017): -VE
- PHH ATP <100uM (PHH; [13]): -VE
- PHH/100xCmax, Proctor (2017) (PHH): -VE
- hLiMTs ATP <100uM (hLiMTs [4]; [13]): -VE
- hLiMTs/100xCmax, Proctor (2017) (hLiMTs [4]): -VE
- hLiMTs/100uM, Proctor (2017) (hLiMTs [4]; hLiMTs, ATP, IC50 threshold 100 µM, ref Proctor et al. 2017): -VE
- Bayesian Machine Learning DILI prediction, Williams (2019) ([5]; Bayesian modeling, ref Williams et al. 2019): -VE
- Bayesian Machine Learning ([5]; ref Williams 2019): -VE
- Cmax [6]: 45 nM
- fu [7]: 0.800
- Assigned DILI category ([8]; Chen et al. 2016 or literature alignment, ref Chen et al. 2016): 1
- In vivo DILI ([8]; […]): -VE
- In vivo DILI ([8]; ref Proctor 2017): -VE
- In vivo DILI ([8]; ref Williams 2019): -VE
- hLiMTs <25x Avg Cmax ATP (hLiMTs [9]): -ve
- hLiMTs <100x Avg Cmaxu ATP (hLiMTs [9]): -ve
- hLiMTs <25x Avg Cmax HCS (hLiMTs [9]): -ve
- hLiMTs <100x Avg Cmaxu HCS (hLiMTs [9]): -ve
- hLiMTs <25x Avg Cmax All (hLiMTs [9]): -ve
- hLiMTs Cmax max All (hLiMTs [9]): -ve
- hLiMTs Cmax min All (hLiMTs [9]): -ve
- hLiMTs <10 uM All (hLiMTs [9]): -ve
- hLiMTs <100x Avg Cmaxu All (hLiMTs [9]): -ve
- HepaRG <25x Avg Cmax ATP (HepaRG spheroids [10]): -ve
- HepaRG <100x Avg Cmaxu ATP (HepaRG spheroids [10]): -ve
- HepaRG <25x Avg Cmax HCS (HepaRG spheroids [10]): -ve
- HepaRG <100x Avg Cmaxu HCS (HepaRG spheroids [10]): -ve
- HepaRG <25x Avg Cmax All (HepaRG spheroids [10]): -ve
- HepaRG Cmax max All (HepaRG spheroids [10]): -ve
- HepaRG Cmax min All (HepaRG spheroids [10]): -ve
- HepaRG <10 uM All (HepaRG spheroids [10]): -ve
- HepaRG <100x Avg Cmaxu All (HepaRG spheroids [10]): -ve

Structure (SMILES): CC(COc1ccccc1)N(CCCl)Cc1ccccc1 (stereo not drawn) [phenoxybenzamine]
- Human plasma Cmax,u [1]: 2 nM
- DILI prediction hLiMTs (HCS-MEC) (hLiMTs [2]): -VE
- DILI prediction HepaRG spheroids (HCS-MEC) (HepaRG spheroids [3]): -VE
- DILI +VE (5-8), DILI -VE (-4) ([11]; in vivo): -VE
- DILI severity category (Chen et al. [2016]) ([11]; in vivo): No
- DILI in vitro assay prediction, Xu (2008) (human hepatocytes): -VE
- Structural based (HCI) (human hepatocytes): -VE
- Partition Hybrid HRM Score [12]: +VE
- Partition Hybrid HRM Score ≥4, Aleo (2019) [12]: +VE (key: +VE: Partition Hybrid HRM Score ≥4)
- Partition Hybrid HRM Score ≥8, Aleo (2019) [12]: -VE
- Ro2 Hybrid HRM Score [12]: +VE
- Rule of Two hybrid HRM Score ≥3, Aleo (2019) [12]: +VE (key: +VE: Rule of Two hybrid HRM Score ≥3)
- Rule of Two hybrid HRM Score ≥8, Aleo (2019) [12]: -VE
- PHH ATP <100uM (PHH): -VE
- PHH/100uM, Proctor (2017) (PHH): -VE
- PHH/100xCmax, Proctor (2017) (PHH): -VE
- hLiMTs ATP <100uM (hLiMTs [4]): -VE
- hLiMTs/100uM, Proctor (2017) (hLiMTs [4]): -VE
- hLiMTs/100xCmax, Proctor (2017) (hLiMTs [4]): -VE
- DILI in vitro assay prediction, Vorrink (2018) (PHH spheroids): -VE
- hLiMTs ATP <20 x Cmax (PHH spheroids): -VE
- Bayesian Machine Learning [5]: -VE
- Bayesian Machine Learning DILI prediction, Williams (2019) [5]: -VE
- Cmax [6]: 197 nM
- fu [7]: 0.009
- Assigned DILI category ([8]; in vivo): 1
- In vivo DILI ([8]; in vivo): -VE
- AC50 (hLiMTs [9]; Homo sapiens, read-out: ATP endpoint AC50): 26.9 µM
- minimal effective concentration (hLiMTs [9]; Homo sapiens, read-out: ATP endpoint MEC): 10.7 µM
- minimal effective concentration (hLiMTs [9]; Homo sapiens, read-out: HCS endpoint MEC): 15.6 µM
- hLiMTs <25x Avg Cmax ATP (hLiMTs [9]): -ve
- hLiMTs <100x Avg Cmaxu ATP (hLiMTs [9]): -ve
- hLiMTs <25x Avg Cmax HCS (hLiMTs [9]): -ve
- hLiMTs <100x Avg Cmaxu HCS (hLiMTs [9]): -ve
- hLiMTs <25x Avg Cmax All (hLiMTs [9]): -ve
- hLiMTs Cmax max All (hLiMTs [9]): -ve
- hLiMTs Cmax min All (hLiMTs [9]): -ve
- hLiMTs <10 uM All (hLiMTs [9]): -ve
- hLiMTs <100x Avg Cmaxu All (hLiMTs [9]): -ve
- HepaRG <25x Avg Cmax ATP (HepaRG spheroids [10]): -ve
- HepaRG <100x Avg Cmaxu ATP (HepaRG spheroids [10]): -ve
- HepaRG <25x Avg Cmax HCS (HepaRG spheroids [10]): -ve
- HepaRG <100x Avg Cmaxu HCS (HepaRG spheroids [10]): -ve
- HepaRG <25x Avg Cmax All (HepaRG spheroids [10]): -ve
- HepaRG Cmax max All (HepaRG spheroids [10]): -ve
- HepaRG Cmax min All (HepaRG spheroids [10]): -ve
- HepaRG <10 uM All (HepaRG spheroids [10]): -ve
- HepaRG <100x Avg Cmaxu All (HepaRG spheroids [10]): -ve
- minimal effective concentration (HepaRG spheroids [10]; read-out: ATP endpoint MEC): 25.3 µM
- minimal effective concentration (HepaRG spheroids [10]; read-out: HCS endpoint MEC): 53.8 µM

- hLiMTs <10 uM All (hLiMTs [2]): -ve
- hLiMTs Cmax max All (hLiMTs [2]; human): -ve
- hLiMTs Cmax min All (hLiMTs [2]; human): -ve
- HepaRG <10 uM All (HepaRG spheroids [3]): -ve
- HepaRG Cmax max All (HepaRG spheroids [3]; human): -ve
- HepaRG Cmax min All (HepaRG spheroids [3]; human): -ve
Structure (SMILES): CC(C)[N+](C)(CCOC(=O)C1c2ccccc2Oc2ccccc21)C(C)C [propantheline]
- DILI severity category ([11]; in vivo): No
- DILI +VE (5-8), DILI -VE (-4) ([11]; ref Chen 2016): -VE
- DILI severity category ([11]; ref Chen 2016): vNo-DILI-Concern
- PHH ATP <100uM (PHH; [13]): -VE
- hLiMTs ATP <100uM (hLiMTs [4]; [13]): -VE
- Bayesian Machine Learning ([5]; ref Williams 2019): -VE
- In vivo DILI ([8]; ref Proctor 2017): -VE
- In vivo DILI ([8]; ref Williams 2019): -VE

— paper PMC7395068, “The evolution of strategies to minimise the risk of human drug-induced liver injury (DILI) in drug discovery and development” (Archives of Toxicology, 2020)
